Measured values as given in patent US20040258733A1, “Breath Freshening and Oral Cleansing Product Using Salicylaldehyde” (priority 2002, published 2004).
Converted amounts (≈) assume the structure as drawn.

Columns and labels:
Type in all cases: cell-based
[1] = test system: Fusobacterium nucleatum; assay: MBC determination, plating on blood agar; settings: F. nucleatum, lowest concentration that killed at least 99.9% of initial inoculum, plates 48 hours at 37° C., read-out: MBC (minimum bactericidal concentration)
Procedure: (§1) The MBC (Minimum bactericidal concentrations) were determined using the 96 well microtiter plate serial dilutions as described above for MIC studies. Serial dilution of cultures in wells showing no visible growth were performed and 10 microliters of culture were plated in triplicate on blood agar plates. Viable colonies were scored after incubation of the plates for 48 hours at 37° C. For each test bacterium, the number of CFU/ml were determined in the initial inoculum. The MBC was defined as the lowest concentration of a test compound that killed at least 99.9% of the cells present in the initial inoculum.

[2] = test system: Porphyromonas gingivalis; assay: MBC determination, plating on blood agar; settings: P. gingivalis, lowest concentration that killed at least 99.9% of initial inoculum, plates 48 hours at 37° C., read-out: MBC (minimum bactericidal concentration)
Procedure: as §1

[3] = test system: Fusobacterium nucleatum; assay: MIC study, 96 well microtiter plate serial dilution; settings: F. nucleatum, 37° C., 48 hours, turbidity at 660 nm, read-out: MIC (minimum inhibitory concentration)
Procedure: (§2) In vitro tests were conducted with a gram positive supragingival plaque bacterium, Streptococcus mutans. In addition, two subgingival plaque bacteria associated with oral malodor were tested, Porphyromonas gingivalis and Fusobacterium nucleatum. The MIC (Minimum Inhibitory Concentrations) study protocol is as follows. Chlorhexidine was used as a positive control and sterile water was used as a negative control. Salicylaldehyde was suspended in 10% methanol with 3.8% Tween 80. […] 96 well microtiter plates were used for this study. Each well contained […] of bacteria, serially diluted agents and bacterial growth medium. All bacterial cultures were incubated at 37° C. and stationary. Bacterial growth was estimated spectrophotometrically at 660 nm, after 48 hours. The MIC for each test bacteria was defined as the minimum concentration of test compound limiting turbidity to […].

[4] = test system: Porphyromonas gingivalis; assay: as above; settings: P. gingivalis, 37° C., 48 hours, turbidity at 660 nm, read-out: MIC (minimum inhibitory concentration)
Procedure: as §2

[5] = test system: Streptococcus mutans; assay: as above
Procedure: as §2

Structure (SMILES) | MBC [1] | MBC [2] | MIC [3] | MIC [4] | effectiveness against S. mutans (in words) [5] | MIC ([5]; Streptococcus mutans, S. mutans, 37° C., 48 hours, turbidity at 660 nm, read-out: MIC (minimum inhibitory concentration))
[H]/N=C(\N/C(=N/[H])NCCCCCCNC(=N)NC(=N)Nc1ccc(Cl)cc1)Nc1ccc(Cl)cc1 [Cholorhexidine, Chlorhexidine, reference compound] | 1.25 mg/L (≈ 2.47 µM) | 1.25 mg/L (≈ 2.47 µM) | 1.25 mg/L (≈ 2.47 µM) | 1.25 mg/L (≈ 2.47 µM) |  | 
O=Cc1ccccc1O [salicylaldehyde] | 15.6 mg/L (≈ 128 µM) | 250 mg/L (≈ 2050 µM) | 7.8 mg/L (≈ 63.9 µM) | 125 mg/L (≈ 1020 µM) | not exceptionally effective | 1000 mg/L (≈ 8190 µM)
